According to patent US20080027003A1, “Peptides Useful for Treating Gnrh Associated Diseases” (CurePeptide Ltd., priority 2004, published 2008):
Like-named read-outs stand apart in the source and are kept apart here. Non-standard residues stand in square brackets, D forms with d. Residues, ends and D or L forms follow the SMILES beside them. *: point of attachment. Palmitoyl = CCCCCCCCCCCCCCCC(=O)*

Experiments:
[1] = system: female athymic NCr-nu nude mice; test: Maximal tolerated dosage (MTD), twice a day for 14 consecutive days; assay type: in vivo; conditions: for mice that died: five mice per group
Procedure: The maximum tolerated dosage (MTD) of the test compounds was tested when administered twice a day for 14 consecutive days.
A total of 50 female athymic NCr-nu nude mice (obtained as mentioned in Example 10a) were used as follows: five groups of mice with five mice per group per compound. Peptides dissolved in water at pH 7 (the vehicle) were evaluated at four dosages (The dosages selected were derived from the results of the TTD experiment, Example 10a):
Peptide X was injected IP at 20 mg/kg/injection for 7 days, followed by IP injections at […] 10, 5, 2.5 mg/kg/injection for 7 days followed by 30, 15 and 7.5 mg/kg, for 14 days respectively.
Peptide NLS-E was tested at 10, 5, 2.5, and 1.25 mg/kg/injection followed by injection at 30, 15, 7.5 and 3.75 mg/kg respectively. Injections were given IV except in the groups treated with 10/30 and 5/15 mg/kg/injection, where injections were switched to IP route on day 10 of treatment.
Additionally, one vehicle-treated control group of five mice per compound was included in the experiment. […] The MTD study was terminated on Day 29.
Individual body weights were measured twice a week.

[2] = system: female athymic nude mice NCr-nu; test: Total tolerated dosage (TTD), single injection; assay type: in vivo; conditions: observed 14 days
Procedure: The total tolerated dosage of peptide by mice administered with a single injection was tested.
The test compounds were administered to 10 female athymic nude mice NCr-nu (Charles River Laboratories, Wilmington, Mass.) as a single injection at the following dosages and routes:
Peptide X was injected intra-peritonealy (IP) at 400, 200, and 100 mg/kg.
Peptide NLS-E was tested intra-venously (IV) at 400, 200, 100, 50 and 25 mg/kg
Different injection volumes of a stock solution at a concentration of 20 mg/ml were used to administer the desired dosages (injection volumes of 0.05, 0.1, and 0.2 ml/10 g body, respectively) The carrier was water for injection at pH 7. […] Individual body weights were measured twice a week.

[3] = system: Colo-205; assay type: cell-based, human; conditions: 24 h
Procedure: (§1) Hemacolor assay—A comparative study was effected between peptides GnRH—X and NLS-GnRH-E on three adenocarcinoma cell lines: MDA-MB-231 (breast) HCT-116 and Colo-205 (colon), described in Example 5 above. Briefly, cells were plated in 96 well plates and allowed to adhere to the plates. Thereafter, various concentrations of GnRH and NLS-GnRH peptides were incubated with the adhered cells for 24 h. To quantify the extent of damage to the cells by the peptides, the Hemacolor assay was effected as described in Example 5. Viable cells which remained adhered to the 96 plastic plates were fixed and stained. Dye was extracted from the plate by addition of 0.5% SDS in PBS (100 μl) with vigorous mixing. Plates were quantified at 650 nm by spectrophotometer (ELISA reader). Cell viability of ≧95% by Trypan blue exclusion from 400 cells was a prerequisite for each experiment. Note, the color intensity is proportional to the extent of the remaining viability. Data was calculated as EC50, which is defined as the concentration (in μM) of analog that provokes a response half way between the baseline (Bottom=control) and maximum response (Top).

[4] = system: HCT-116; assay type: cell-based, human; conditions: 24 h
Procedure: as §1

[5] = system: MDA-MB-231; assay type: cell-based, human; conditions: 24 h
Procedure: as §1

[6] = system: Colo-205 adenocarcioma cell line; test: Growth inhibitory effect by Hemacolor assay on Colo-205 (Example 7); assay type: cell-based, human
Source text: Peptides were synthesized as described in Example 6 above.
Table 10 below summarizes the concentration of the various peptides required to obtain 50% viability, or to destroy 50% of the tumor cells, as derived from the hemacolor test (FIGS. 3 and 4a-c). Of note, the higher the concentration of peptide required, the poorer the potency of the analog.

[7] = read-out: Concentration required to obtain 50% viability
[8] = read-out: Concentration [M] × 10^−6 (derived from table 10)

Compound	EC50 [3] [µM]	EC50 [4] [µM]	EC50 [5] [µM]	Activity with respect to NLS-E (%) [6] [%]	EC50 [6, 7] [M]	EC50 [6, 8] [M]	further results
CCCCCCCCCCCCCCCC(=O)N1CCC[C@H]1C(=O)NCC(=O)N[C@H](Cc1ccccc1)C(=O)N1CCC[C@H]1C(=O)N[C@@H](CO)C(=O)N[C@@H](Cc1ccc(O)cc1)C(=O)N[C@H](CCCCN)C(=O)N[C@@H](CC(C)C)C(=O)N[C@@H](CCCNC(=N)N)C(=O)N1CCC[C@H]1C(=O)NCC(N)=O [SEQ ID NO: 2, Palm-Pro-Gly-D-Phe-Pro-Ser-Tyr-D-Lys-Leu-Arg-Pro-Gly-NH2] (Palmitoyl-PG[dF]PSY[dK]LRPG-NH2)	200	750	400	–	–	–	mice that died ([1]; 10/30 mg/kg): one; mice that died ([1]; IP, 20/60 mg/kg): Three; lethality after single injection ([2]; IP, 100 mg/kg): stayed alive; lethality after single injection ([2]; IP, 200 mg/kg): lethal; lethality after single injection ([2]; IP, 400 mg/kg): lethal
CCCCCCCCCCCCCCCC(=O)N[C@H](CCCCNC(=O)[C@@H](NC(=O)[C@H](CCCCN)NC(=O)[C@H](CCCNC(=N)N)NC(=O)[C@H](CCCCN)NC(=O)[C@H](CCCCN)NC(=O)[C@H](CCCCN)NC(=O)[C@@H]1CCCN1)C(C)C)C(=O)N1CCC[C@H]1C(=O)NCC(=O)N[C@H](Cc1ccccc1)C(=O)N1CCC[C@H]1C(=O)N[C@@H](CO)C(=O)N[C@@H](Cc1ccc(O)cc1)C(=O)N[C@H](CCCCN)C(=O)N[C@@H](CC(C)C)C(=O)N[C@@H](CCCNC(=N)N)C(=O)N1CCC[C@H]1C(=O)NCC(N)=O [SEQ ID NO: 33, Palm-D-Lys(H-Pro-Lys-Lys-Lys-Arg-Lys-Val)-Pro-Gly-D-Phe-Pro-Ser-Tyr-D-Lys-Leu-Arg-Pro-Gly-NH2]	68	320	350	–	–	–	mice that died ([1]; IV injected, all dosages): None; comparative toxicity ([1]; repeated dosing in mice): less toxic than peptide X; lethality after single injection ([2]; IV, 25 mg/kg): stayed alive; lethality after single injection ([2]; IV, 50 mg/kg): stayed alive; lethality after single injection ([2]; IV, 100 mg/kg): lethal; lethality after single injection ([2]; IV, 200 mg/kg): lethal; lethality after single injection ([2]; IV, 400 mg/kg): lethal
Palm-D-Lys-Gly-D-Phe-Pro-Ser-Tyr-D-Lys-Leu-Arg-Pro-Gly-NH2 (Palmitoyl-[dK]G[dF]PSY[dK]LRPG-NH2; SMILES CCCCCCCCCCCCCCCC(=O)N[C@H](CCCCN)C(=O)NCC(=O)N[C@H](Cc1ccccc1)C(=O)N1CCC[C@H]1C(=O)N[C@@H](CO)C(=O)N[C@@H](Cc1ccc(O)cc1)C(=O)N[C@H](CCCCN)C(=O)N[C@@H](CC(C)C)C(=O)N[C@@H](CCCNC(=N)N)C(=O)N1CCC[C@H]1C(=O)NCC(N)=O) [SEQ ID NO: 10]	–	–	–	12.5	5e-05	–	–
Palm-D-Lys-Pro-Gly-D-Phe-Pro-Ser-Tyr-D-Lys-Leu-Arg-Pro-Gly-NH2 (Palmitoyl-[dK]PG[dF]PSY[dK]LRPG-NH2; SMILES CCCCCCCCCCCCCCCC(=O)N[C@H](CCCCN)C(=O)N1CCC[C@H]1C(=O)NCC(=O)N[C@H](Cc1ccccc1)C(=O)N1CCC[C@H]1C(=O)N[C@@H](CO)C(=O)N[C@@H](Cc1ccc(O)cc1)C(=O)N[C@H](CCCCN)C(=O)N[C@@H](CC(C)C)C(=O)N[C@@H](CCCNC(=N)N)C(=O)N1CCC[C@H]1C(=O)NCC(N)=O) [SEQ ID NO: 9]	–	–	–	16	3.5e-05	3.5e-05	Activity with respect to NLS peptide (%) ([6]; relative to the corresponding NLS-conjugated peptide): 16%
Palm-Pro-Gly-D-Phe-Ala-Ser-Tyr-D-Lys-Leu-Arg-Pro-Gly-NH2 (Palmitoyl-PG[dF]ASY[dK]LRPG-NH2; SMILES CCCCCCCCCCCCCCCC(=O)N1CCC[C@H]1C(=O)NCC(=O)N[C@H](Cc1ccccc1)C(=O)N[C@@H](C)C(=O)N[C@@H](CO)C(=O)N[C@@H](Cc1ccc(O)cc1)C(=O)N[C@H](CCCCN)C(=O)N[C@@H](CC(C)C)C(=O)N[C@@H](CCCNC(=N)N)C(=O)N1CCC[C@H]1C(=O)NCC(N)=O) [SEQ ID NO: 16]	–	–	–	16	3.5e-05	–	–
Palm-Pro-Gly-D-Phe-Pro-Ser-Tyr-D-Lys(H-Pro-Lys-Lys-Lys-Arg-Lys-Val)-Leu-Arg-Pro-Gly-NH2 [SEQ ID NO: 32]	–	–	–	50	1e-05	1e-05	–
